Entries after “also recorded” stand apart in the source; their conditions may differ.
Legend:
human MTC cells = experiment: RNA microarray of h-MTC cells; format: cell-based
Description: Technical aspects of microarray studies, stringent quality control of microarray studies and statistic analysis of gene expression were as described previously. […] In brief, the array hybridization and processing, data retrieval and the analysis were carried out with standard sets of Affymetrix (Santa Clara, Calif.) equipment, software and protocols in an Affymetrix microarray core facility. RNA was extracted from cell cultures of two independent biological replicates of each experimental condition and analyzed for sample purity and integrity, using BioAnalyzer instrumentation (Agilent, Santa Clara, Calif.). Expression analysis of 54,675 transcripts was conducted for each sample, using Affymetrix HG-U133A Plus 2.0 arrays. Data retrieval and analysis was completed by MAS5.0 software. Concordant changes of gene expression for each experimental condition were determined at the statistical threshold P value, <0.01 (two-tailed t test).

GL261 cells [1] = experiment: GL261 cell multiplicity after Tetrac exposure; format: cell-based, murine; conditions: one hour exposure to Tetrac
Description: Cell multiplicity (CM) was determined from Giemsa stained slides by counting the number of cells per microcolony under 20× magnification. At least 400 microcolonies were counted.
The length of time that Tetrac biologically affected GL261 cells was also determined. To do this, the multiplicity relationship defined above was utilized. Tetrac was added to cells one hour prior to the determination of the multiplicity. After the exposure of exponentially growing GL261 cells to Tetrac, the Tetrac containing medium was removed from GL261 cells, which contained an unknown residual and fresh medium (without Tetrac) was added. As a function of time (i.e., 0, 1, 2, 3, 4, 6, 8, and 10 hours, and 1-6 days), the cells, containing an unknown residual amount of remaining Tetrac, were then processed for determination of the multiplicity index (i.e. the number of cells per microcolony).

GL261 cells [2] = experiment: GL261 sublethal damage repair (SLDR), split dose; format: cell-based, murine
Description: SLDR was measured at 10% immediate survival level as determined from the acute single dose curve for both control and Tetrac-treated cells in both growth states (i.e. exponentially growing and plateau phase cells. Flasks were irradiated with one-half of the total dose and returned to the 37° C. incubator. At increasing periods of time, flasks were removed, and given the second half of the immediate 10% survival dose. Survival was measured at 0, 0.5, 1.0, 1.5, 2.0, 3.0, 4.0, 6.0, 8.0, and 10.0 hours after the initial dose.
To investigate the effects of Tetrac on SLDR and PLDR, cells were chosen that had been given a one-hour treatment with Tetrac at two different times, i.e., at 70 and 270 hours post-seeding).

[3] = tested on: human medullary carcinoma of the thyroid (MTC) xenograft; experiment: MTC xenograft in nude mice; conditions: mouse, in vivo
Source text: Water and food were provided ad libitum.

[4] = tested on: U87MG human glioblastoma cells; experiment: U87MG clonogenic survival after 250 kVp single dose x-irradiation; format: cell-based
Description: To irradiate culture flasks, a Philips 250 kVp x-ray machine (Philips Corp., Fall River, Mass.) operated at 250 kVp and 15 mA with added filtration of a 0.4 mm Thoreaus filter was used. The target to source distance was 30 cm. Dose rates were measured using an R-meter (Victoreen Co., Cleveland, Ohio), and converted to absorbed (Gy) doses using appropriate temperature, pressure, and R to Gy conversion factors. The dose rate was approximately 1 Gy/min. Flasks were irradiated after being taken from a 37° C. environment and moved to the x-ray source. Movement at ambient temperature took approximately 1-2 min. Cells were next placed on ice and allowed to cool for 5 min. Lastly, flasks were placed in the Philips irradiator on top of a 2 mm thickness of Lucite which was on top of a layer of crushed ice.
The maximum time needed for irradiation of the single dose survival curve was approximately 8 min.
For SHMT analysis, data lying at or below a fractional survival (F×S) value of 0.368 were fit using a linear regression analysis of the log survival data versus linear dose. From this fit the extrapolation number (n), the quasi-threshold dose (Dq, Gy) and the inverse of the inactivation slope (Do, Gy) were derived.
For LQ analyses, survival data lying between the fractional survivals of 1.00 and 0.05 were used. The log survival data were transformed to a linear form using the relationship (−ln F×S/D) and plotted against D. A linear regression analysis was performed to yield the LQ equation along with the 95% confidence limits on the y-intercept (alpha) and the slope (beta) using a t-table with the appropriate (N−1) degrees of freedom. (See Goldstein A. Biostatistics, Academic Press, 1995.)

Solubility = format: physicochemical; conditions: required a high volume of cosolvent (DMSO)
[5] = tested on: chick chorioallantoic membrane (CAM) blood vessel branch points; experiment: Chick chorioallantoic membrane (CAM) model of angiogenesis; format: in vivo
Description: In vivo neovascularization was examined by methods described previously. 9-12 Ten-day-old chick embryos were purchased from SPAFAS (Preston, Conn.) and incubated at 37° C. with 55% relative humidity. A hypodermic needle was used to make a small hole in the shell concealing the air sac, and a second hole was made on the broad side of the egg, directly over an avascular portion of the embryonic membrane that was identified by candling. A false air sac was created beneath the second hole by the application of negative pressure at the first hole, causing the CAM to separate from the shell. […] Thyroid hormone, hormone analogs, FGF2 or control solvents, and inhibitors were then applied to the disks and the disks allowed to dry. The disks were then suspended in PBS and placed on growing CAMs. […] At 24 hours, the MAPK cascade inhibitor PD 98059 was also added to CAMs topically by means of the filter disks. […] The number of vessel branch points contained in a circular region equal to the area of each filter disk were counted. […] In addition, each experiment was performed 3 times. The resulting angiogenesis index is the mean±SEM of new branch points.

[6] = tested on: SKN-SH, SaOS2 and MCF7 cells, drug-sensitive and -resistant; experiment: MTT cell viability of drug-sensitive and drug-resistant cancer cells; format: cell-based; conditions: 4 days
Description: Drug-sensitive and -resistant SKN-SH (FIGS. 13C-D), SaOS2 (FIGS. 13A-B), and MCF7 (FIGS. 13E-F) cells were subjected to treatment with increasing concentrations of Tetrac or Doxirubicin over a period of 4 days. Cell viability was then measured by MTT assay. The data represent the average of 4 determinations±SE.
Doxorubicin resistant SKN-SH/R, MCF7/R and SaOS2/R cells were subjected to treatment with Tetrac either alone or in combination with each of doxorubicin (Dox), etoposide (Etop), cisplatin (Cisp), or trichostatin A (TSA) at the indicated concentrations, After 4 days in cell viability was determined by the MTT assay and the data represented as average of 3 determinations±SE.

[7] = tested on: medullary thyroid carcinoma cells implanted in CAM; experiment: CAM cancer implant model; format: in vivo, chick; conditions: 1 μg/CAM; n = 8; P<0.01
Description: The effect of Tetrac versus nanoparticulate Tetrac at 1.0 μg/CAM on tumor angiogenesis and tumor growth of 1×10^6 medullary thyroid carcinoma cells implanted in Matrigel in 7 day-old CAM's was determined 8 days after implantation. […] Data represent mean tumor weight (mg) and tumor hemoglobin (mg/dL)±SEM per treatment group, n=8 per group.

O=C(O)Cc1cc(I)c(Oc2cc(I)c(O)c(I)c2)c(I)c1 [Tetrac, tetraiodothyroacetic acid]
expression of VEGFA (in words) (human MTC cells): significantly decreased | expression of genes associated with induction of apoptosis: CASP2, DFFA, FAF1, CASP8AP2 (in words) (human MTC cells): caused expression | expression of thrombospondin (THBS1) gene (in words) (human MTC cells): increase | half-time for Tetrac uptake (Tetrac uptake): 10 to 15 min | time for a 50% return of the cell multiplicity factor towards control (GL261 cells [1]): approximately 2.5 days | time post Tetrac treatment at which the decrease in the CM factor was at 50% (GL261 cells [1]): 60 h | repair of x-ray damage at 6 to 8 hours post-irradiation (in words) (GL261 cells [2]; 2 uM, FIG. 58, control repaired by a factor of 4 to 5): showed no repair of x-ray damage | reduction of SLDR by a factor of (GL261 cells [2]; exponential cells): 1.8 | SLDR recovery ratio at 10 hours post-irradiation (GL261 cells [2]; exponential cells, two 2.50 Gy split doses, control approximately 4 to 5): approximately 2.2 | SLDR recovery ratio at 2 hours after the first dose (GL261 cells [2]; exponential cells, control approximately 2.5): 1.8 | survival at 3 hours after the initial dose, relative to survival at 0 hours (fixation of damage) (GL261 cells [2]; plateau phase cells with Tetrac): approximately 36% | decrease in cellular repair (SLDR) by a factor of (GL261 cells [2]; plateau phase cells, three hours post-irradiation): ~3 | mortality (in words) [3]: no mortality | increase of α (ratio of the alpha values, sensitization factor) [4]: 3.6 fold | isoeffect comparison at 10% survival, ratio [4]: 2.2 | ratio of relative survival values at 2 Gy [4]: 4.6 | reduction of the D0 value [4]: 31% | β (LQ) ([4]; Tetrac treated cells, control 0.016 (±0.002)): 0.076 (±0.006) | n (SHMT) ([4]; Tetrac treated cells, control 2.97 (2.41-3.21)): 1.01 (0.45-2.3) | sensitization factor, average of 3 comparisons ([4]; range of 2.2 to 4.6): 3.5 | solubility in water (in words) (Solubility): difficult to solubilize in water | effect on angiogenesis stimulated by T4-agarose (in words) ([5]; T4-agarose 0.1 μmol/L + Tetrac): inhibited | effect on angiogenesis stimulated by T4 (in words) ([5]; Tetrac 0.1 μmol/L, T4 0.1 μmol/L): inhibited the action of T4 | effect of Tetrac alone on angiogenesis (in words) ([5]; Tetrac alone): had no effect on angiogenesis; also recorded: does not stimulate angiogenesis | anti-proliferative activity against drug-sensitive vs drug-resistant cells (in words) ([6]; MTT): equivalent anti-proliferative activity | cellular responses to doxorubicin, etoposide, cisplatin and TSA when combined with Tetrac (in words) ([6]; doxorubicin resistant SKN-SH/R, MCF7/R and SaOS2/R cells): significantly enhanced | tumor growth (in words) [7]: effective inhibition | tumor-mediated angiogenesis (in words) [7]: significant inhibition
